In experiment [1] the target is T1, Met (Homo sapiens, UniProt P08581).
T1 construct: purchased Life Technologies
Briefly: LanthaScreen Eu kinase binding assay, Met. The note with it: Tracer 236, read-out: cMet kinase binding activity (Kd).

Experiment [2] has as its target T2, TYRO3 (Homo sapiens, UniProt Q06418).
T2 construct: purchased Life Technologies
T2 sequence (Q06418 41-890): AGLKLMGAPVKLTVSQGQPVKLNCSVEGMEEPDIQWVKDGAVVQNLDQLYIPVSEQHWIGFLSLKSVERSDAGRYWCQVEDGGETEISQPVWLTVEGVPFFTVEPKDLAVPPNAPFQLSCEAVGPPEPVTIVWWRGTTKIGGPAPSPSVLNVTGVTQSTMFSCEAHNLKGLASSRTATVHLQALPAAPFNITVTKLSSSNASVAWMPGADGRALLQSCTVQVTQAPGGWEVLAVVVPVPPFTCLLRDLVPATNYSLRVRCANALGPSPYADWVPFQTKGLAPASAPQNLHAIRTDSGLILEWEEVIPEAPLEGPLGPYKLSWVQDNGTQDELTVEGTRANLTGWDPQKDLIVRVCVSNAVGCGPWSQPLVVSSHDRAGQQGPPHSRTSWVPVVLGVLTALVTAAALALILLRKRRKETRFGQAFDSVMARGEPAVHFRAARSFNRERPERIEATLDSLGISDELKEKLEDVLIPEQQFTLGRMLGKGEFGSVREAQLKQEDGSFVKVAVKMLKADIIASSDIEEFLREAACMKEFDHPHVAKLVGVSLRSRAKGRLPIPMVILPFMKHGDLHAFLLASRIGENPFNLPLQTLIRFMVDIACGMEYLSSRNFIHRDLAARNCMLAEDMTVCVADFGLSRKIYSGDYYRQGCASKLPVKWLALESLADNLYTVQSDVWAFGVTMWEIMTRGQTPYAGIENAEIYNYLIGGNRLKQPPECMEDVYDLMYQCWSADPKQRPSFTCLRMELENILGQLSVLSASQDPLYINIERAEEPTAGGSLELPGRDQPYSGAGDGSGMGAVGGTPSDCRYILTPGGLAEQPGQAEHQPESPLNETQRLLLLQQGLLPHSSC
As to the kind of experiment: LanthaScreen Eu kinase binding assay, TYRO3. The note with it: Tracer 236. (TR-FRET usually uses a lanthanide donor and a delayed reading to cut background.)

Experiment [3] concerns the target T3, Mer (Homo sapiens, UniProt Q12866).
T3 construct: purchased Life Technologies
T3 sequence (Q12866 21-999): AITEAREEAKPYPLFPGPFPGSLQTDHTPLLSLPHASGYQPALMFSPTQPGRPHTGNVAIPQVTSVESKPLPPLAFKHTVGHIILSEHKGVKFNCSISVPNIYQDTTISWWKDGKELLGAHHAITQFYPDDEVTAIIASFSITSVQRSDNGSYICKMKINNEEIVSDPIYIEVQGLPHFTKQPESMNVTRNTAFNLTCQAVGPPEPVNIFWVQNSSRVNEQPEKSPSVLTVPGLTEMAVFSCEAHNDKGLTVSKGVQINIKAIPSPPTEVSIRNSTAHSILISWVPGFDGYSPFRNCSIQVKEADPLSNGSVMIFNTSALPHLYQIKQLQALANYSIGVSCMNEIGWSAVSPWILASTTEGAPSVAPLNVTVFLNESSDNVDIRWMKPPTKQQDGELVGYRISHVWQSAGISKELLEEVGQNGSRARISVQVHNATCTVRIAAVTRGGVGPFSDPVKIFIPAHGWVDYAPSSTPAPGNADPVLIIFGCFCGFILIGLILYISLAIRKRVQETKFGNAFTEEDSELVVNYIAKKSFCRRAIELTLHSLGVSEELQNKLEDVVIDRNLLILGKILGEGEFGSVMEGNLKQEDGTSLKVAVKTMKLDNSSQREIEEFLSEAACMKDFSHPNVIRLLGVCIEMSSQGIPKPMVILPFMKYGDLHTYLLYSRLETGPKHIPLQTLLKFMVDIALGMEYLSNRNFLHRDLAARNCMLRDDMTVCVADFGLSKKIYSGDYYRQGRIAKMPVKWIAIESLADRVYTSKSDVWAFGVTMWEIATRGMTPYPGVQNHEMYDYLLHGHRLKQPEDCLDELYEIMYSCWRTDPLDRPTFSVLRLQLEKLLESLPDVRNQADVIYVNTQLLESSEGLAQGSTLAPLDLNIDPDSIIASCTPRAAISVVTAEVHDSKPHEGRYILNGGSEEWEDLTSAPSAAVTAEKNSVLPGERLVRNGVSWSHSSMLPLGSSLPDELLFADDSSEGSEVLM
As to the kind of experiment: LanthaScreen Eu kinase binding assay, Mer. The note with it: Tracer 236.

For experiment [4], the target named is T4, Axl (Homo sapiens, UniProt P30530).
T4 construct: purchased Life Technologies
T4 sequence (P30530 26-894): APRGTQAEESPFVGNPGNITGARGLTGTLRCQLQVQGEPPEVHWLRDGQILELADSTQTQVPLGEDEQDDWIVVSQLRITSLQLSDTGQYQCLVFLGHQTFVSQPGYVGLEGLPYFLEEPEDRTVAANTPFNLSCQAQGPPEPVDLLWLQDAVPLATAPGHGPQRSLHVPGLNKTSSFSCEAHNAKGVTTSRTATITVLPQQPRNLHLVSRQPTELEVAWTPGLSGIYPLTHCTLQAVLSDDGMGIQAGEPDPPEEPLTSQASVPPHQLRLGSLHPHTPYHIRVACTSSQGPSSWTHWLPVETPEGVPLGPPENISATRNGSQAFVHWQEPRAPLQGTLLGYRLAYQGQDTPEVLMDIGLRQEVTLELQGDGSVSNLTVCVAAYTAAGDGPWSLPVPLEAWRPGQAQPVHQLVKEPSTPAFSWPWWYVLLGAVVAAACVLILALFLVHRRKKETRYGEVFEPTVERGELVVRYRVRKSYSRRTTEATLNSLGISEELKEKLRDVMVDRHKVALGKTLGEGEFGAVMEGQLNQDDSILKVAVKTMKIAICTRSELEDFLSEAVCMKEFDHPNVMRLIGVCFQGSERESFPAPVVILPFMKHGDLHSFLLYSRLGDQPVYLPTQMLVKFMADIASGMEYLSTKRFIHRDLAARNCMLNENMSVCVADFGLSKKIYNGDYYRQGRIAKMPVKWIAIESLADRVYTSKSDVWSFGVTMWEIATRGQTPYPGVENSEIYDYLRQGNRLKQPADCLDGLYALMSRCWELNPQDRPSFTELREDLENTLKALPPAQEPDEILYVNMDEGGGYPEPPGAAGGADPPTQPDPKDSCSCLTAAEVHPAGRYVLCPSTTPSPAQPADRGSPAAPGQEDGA
Briefly: LanthaScreen Eu kinase binding assay, Axl. The note with it: Tracer 236.

T1 sequence (P08581 25-1390): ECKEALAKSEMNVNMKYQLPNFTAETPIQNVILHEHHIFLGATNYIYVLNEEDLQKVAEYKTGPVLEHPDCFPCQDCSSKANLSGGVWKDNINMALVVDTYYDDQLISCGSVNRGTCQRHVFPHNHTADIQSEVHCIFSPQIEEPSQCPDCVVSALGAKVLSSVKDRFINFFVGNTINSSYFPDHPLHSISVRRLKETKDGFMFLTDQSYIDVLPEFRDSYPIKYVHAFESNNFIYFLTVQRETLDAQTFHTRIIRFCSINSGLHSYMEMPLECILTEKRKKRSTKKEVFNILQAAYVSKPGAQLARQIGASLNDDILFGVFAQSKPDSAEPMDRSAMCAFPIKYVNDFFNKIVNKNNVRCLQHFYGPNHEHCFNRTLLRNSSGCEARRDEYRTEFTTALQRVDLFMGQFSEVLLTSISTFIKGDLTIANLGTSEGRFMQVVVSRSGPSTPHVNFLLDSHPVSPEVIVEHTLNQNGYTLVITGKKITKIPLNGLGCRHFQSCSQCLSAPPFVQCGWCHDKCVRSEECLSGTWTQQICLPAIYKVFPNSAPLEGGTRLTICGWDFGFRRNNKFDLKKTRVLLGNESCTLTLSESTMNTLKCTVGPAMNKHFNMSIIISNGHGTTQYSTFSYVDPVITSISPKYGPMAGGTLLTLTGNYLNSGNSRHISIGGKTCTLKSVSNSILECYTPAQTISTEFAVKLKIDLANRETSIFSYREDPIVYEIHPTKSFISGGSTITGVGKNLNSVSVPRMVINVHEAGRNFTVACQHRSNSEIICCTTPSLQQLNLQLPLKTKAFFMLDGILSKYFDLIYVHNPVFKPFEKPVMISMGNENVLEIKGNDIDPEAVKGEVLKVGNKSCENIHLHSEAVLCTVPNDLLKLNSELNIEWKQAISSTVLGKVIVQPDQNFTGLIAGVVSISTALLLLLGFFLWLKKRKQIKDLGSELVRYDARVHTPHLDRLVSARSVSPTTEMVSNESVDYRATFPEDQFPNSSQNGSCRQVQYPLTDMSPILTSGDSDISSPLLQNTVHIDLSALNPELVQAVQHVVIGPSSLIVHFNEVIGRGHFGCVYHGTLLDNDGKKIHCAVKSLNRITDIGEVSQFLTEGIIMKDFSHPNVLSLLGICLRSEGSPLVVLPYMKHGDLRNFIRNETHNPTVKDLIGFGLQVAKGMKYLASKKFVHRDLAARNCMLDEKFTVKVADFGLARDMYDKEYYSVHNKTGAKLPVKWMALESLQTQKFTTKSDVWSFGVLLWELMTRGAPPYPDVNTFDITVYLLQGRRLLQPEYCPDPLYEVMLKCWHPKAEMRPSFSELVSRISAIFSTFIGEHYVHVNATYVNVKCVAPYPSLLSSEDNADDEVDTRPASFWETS

As for `CCOc1cn(-c2cnc(C(F)(F)F)cn2)nc1C(=O)Nc1ccc(Oc2ccnc3cc(OC)c(OC)cc23)cn1` [Compound 159], the Kd in experiment [1], in experiment [2], in experiment [3] and in experiment [4] was no less than 1000 nM each time.
As for `CCOc1cn(CCN(C)C)nc1C(=O)Nc1ccc(Oc2ccnc3cc(OC)c(OC)cc23)cn1` [Compound 49], the Kd in experiment [1] is 100 to 1000 nM; in experiment [2] it was 100 to 1000 nM; in experiment [3], less than 100 nM; in experiment [4] it was 100 to 1000 nM.
In the case of `CCOc1nn(-c2ccc(F)cc2C)cc1C(=O)Nc1ccc(Oc2ccnc3cc(OC)c(OC)cc23)c(F)c1` [Compound 277], the Kd in experiment [1] is no less than 1000 nM; in experiment [2], less than 100 nM; in experiment [3], 100 to 1000 nM; in experiment [4], no less than 1000 nM.
In the case of `CCOc1cnn(C2CCNC2)c1C(=O)Nc1ccc(Oc2ccnc3cc(OC)c(OC)cc23)cn1` (stereo not shown) [Compound 71], the Kd in experiment [1] is 100 to 1000 nM; in experiment [2] it was no less than 1000 nM; in experiment [3], 100 to 1000 nM; in experiment [4], no less than 1000 nM.
For the compound `CCOc1cn(Cc2cccnc2)nc1C(=O)Nc1ccc(Oc2ccnc3cc(OC)c(OC)cc23)cn1` [Compound 83], the Kd in experiment [1] was less than 100 nM; in experiment [2], 100 to 1000 nM; in experiment [3], less than 100 nM; in experiment [4] it was less than 100 nM.
As for `CCOc1cn(C2CCN(C)CC2)nc1C(=O)Nc1ccc(Oc2ccnc3cc(OC)c(OC)cc23)cc1F` [Compound 222], the Kd in experiment [1] was no less than 1000 nM; in experiment [2], no less than 1000 nM; in experiment [3], 100 to 1000 nM; in experiment [4] it was 100 to 1000 nM.
`CCOc1cn(-c2cnc(N)nc2)nc1C(=O)Nc1ccc(Oc2ccnc3cc(OC)c(OC)cc23)c(C)c1` [Compound 140]: the Kd in experiment [1] was less than 100 nM; in experiment [2], 100 to 1000 nM; in experiment [3], less than 100 nM; in experiment [4] it was less than 100 nM.
Turning to `CCOc1cn(C2CCNC2)nc1C(=O)Nc1ccc(Oc2ccnc3cc(OC)c(OC)cc23)cn1` (stereo not shown) [Compound 69], the Kd is 100 to 1000 nM in experiment [1], no less than 1000 nM in experiment [2], 100 to 1000 nM in experiment [3] and no less than 1000 nM in experiment [4].
`CCOc1cn(-c2cnccn2)nc1C(=O)NC1CC(Oc2ccnc3cc(OC)c(OC)cc23)C1` (stereo not shown) [Compound 204]: the Kd in experiment [1] was 100 to 1000 nM; in experiment [2] it was no less than 1000 nM; in experiment [3], 100 to 1000 nM; in experiment [4] it was no less than 1000 nM.
`CCOc1cn(-c2cnc(C(F)(F)F)nc2)nc1C(=O)Nc1ccc(Oc2ccnc3cc(OC)c(OC)cc23)cn1` [Compound 144]: the Kd in experiment [1] is 100 to 1000 nM; in experiment [2], 100 to 1000 nM; in experiment [3] it was less than 100 nM; in experiment [4], less than 100 nM.
Consider `CCOc1cn(-c2cnccc2CC(=O)OC)nc1C(=O)Nc1ccc(Oc2ccnc3cc(OC)c(OC)cc23)cn1` [Compound 176], for which the Kd in experiment [1] is less than 100 nM; in experiment [2], 100 to 1000 nM; in experiment [3], less than 100 nM; in experiment [4] it was less than 100 nM.
In the case of `CCOc1cn(-c2cnc(N)nc2)nc1C(=O)Nc1ccc(Oc2ccnc3cc(OC)c(OC)cc23)c(Cl)c1` [Compound 146], the Kd in experiment [1], in experiment [2], in experiment [3] and in experiment [4] was less than 100 nM each time.
Regarding `CCOc1cn(-c2cnccn2)nc1C(=O)Nc1ccc(Oc2ccnc3cc(OC)c(OC)cc23)cc1F` [Compound 152], the Kd in experiment [1] was no less than 1000 nM; in experiment [2], no less than 1000 nM; in experiment [3], less than 100 nM; in experiment [4], no less than 1000 nM.
With `CCOc1cnn(-c2cnc(C(F)(F)F)nc2)c1C(=O)Nc1ccc(Oc2ccnc3cc(OC)c(OC)cc23)cn1` [Compound 145], the dissociation constant Kd in experiment [1], in experiment [2], in experiment [3] and in experiment [4] was no less than 1000 nM in each case.
Consider `CCOc1cnn(C2CCOC2)c1C(=O)Nc1ccc(Oc2ccnc3cc(OC)c(OC)cc23)cn1` (stereo not shown) [Compound 77], for which the Kd is 100 to 1000 nM in experiment [1], 100 to 1000 nM in experiment [2], less than 100 nM in experiment [3] and 100 to 1000 nM in experiment [4].
As for `CCOc1cnn(-c2ccc(C(C)C)cc2)c1C(=O)Nc1ccc(Oc2ccnc3cc(OC)c(OC)cc23)cn1` [Compound 118], the Kd in experiment [1] was 100 to 1000 nM; in experiment [2], 100 to 1000 nM; in experiment [3], less than 100 nM; in experiment [4], 100 to 1000 nM.
Consider `CCOc1cn(-c2cnccc2OC)nc1C(=O)Nc1ccc(Oc2ccnc3cc(OC)c(OC)cc23)cn1` [Compound 173], for which the Kd in experiment [1], in experiment [2], in experiment [3] and in experiment [4] was less than 100 nM throughout.
Regarding `CCOc1cn(-c2ncc(Cl)cc2CN)nc1C(=O)Nc1ccc(Oc2ccnc3cc(OC)c(OC)cc23)cn1` [Compound 134], the Kd in experiment [1] was less than 100 nM; in experiment [2], no less than 1000 nM; in experiment [3], less than 100 nM; in experiment [4], 100 to 1000 nM.
Regarding `CCOc1cn(-c2cccnc2)nc1C(=O)Nc1cnc(Oc2ccnc3cc(OC)c(OC)cc23)nc1` [Compound 60], the Kd in experiment [1], in experiment [2], in experiment [3] and in experiment [4] was no less than 1000 nM throughout.
On to `COc1cc2c(Oc3ccc(NC(=O)c4c(OCC(F)(F)F)cnn4-c4cnc(N)nc4)nc3)ccnc2cc1OC(C)C` [Compound 256], for which the Kd in experiment [1] was no less than 1000 nM; in experiment [2] it was no less than 1000 nM; in experiment [3], 100 to 1000 nM; in experiment [4], 100 to 1000 nM.
For the compound `CCOc1cn(CCC(=O)NC)nc1C(=O)Nc1ccc(Oc2ccnc3cc(OC)c(OC)cc23)cn1` [Compound 67], the Kd in experiment [1] was 100 to 1000 nM; in experiment [2], 100 to 1000 nM; in experiment [3] it was less than 100 nM; in experiment [4], 100 to 1000 nM.
On to `CCOc1cn(-c2ccc(F)cc2C)nc1C(=O)Nc1cnc(Oc2ccnc3cc(OC)c(OC)cc23)cn1` [Compound 98], for which the Kd in experiment [1], in experiment [2], in experiment [3] and in experiment [4] was no less than 1000 nM in each case.

A word on the Kd: it is the constant that tells how readily two partners part at equilibrium.

These data come from patent publication US10934274B2, “Quinoline derivatives as TAM RTK inhibitors” (Qurient Co., Ltd., priority 2015, dated 2021).
